Experiment [1] concerns Caki-1 renal cell carcinoma cells. The experiment is described as follows: Viability of Caki-1 renal cell carcinoma cells after treatment. Type of experiment: cell-based. The note with it: various doses, 24 hours treatment.
Method: Caki-1 renal carcinoma cells were treated with either control (DMSO) or various doses (e.g. 0.002, 0.005, 0.014, 0.041, 0.123, 0.370, 1.111, 3.333 and 10 μM) of a GPX4 inhibitor (RSL3 or ML162) in the presence or absence of 1 μM Ferrostatin for 24 hours prior to co-culture with THP1-Dual cells for an additional 24 hours. […] Caki-1 cells were acquired from ATCC and THP1-Dual cells acquired from InvivoGen (San Diego, Calif.). Both cell types were cultured in 96-well plates for the duration of the assay.
Experiment [2] deals with NFKB. Nature of the experiment: NFKB reporter activity in THP1-Dual monocytes co-cultured with treated Caki-1 cells. Type of experiment: cell-based, human. As to conditions: Caki-1 cells treated 24 hours, then co-culture with THP1-Dual cells 24 hours; versus DMSO. As to the method: Caki-1 renal cell carcinoma cells were treated with either control (DMSO) or various doses of Erastin, for 24 hours prior to co-culture with THP1-Dual cells for an additional 24 hours. Erastin was purchased from Selleckchem (Houston, Tex.) and dissolved in DMSO. Subsequently, the THP1 supernatants were assessed for NFKB or IRF reporter activity.
Caki-1 cells were acquired from ATCC and THP1-Dual cells acquired from InvivoGen (San Diego, Calif.). Both cell types were cultured in 96-well plates for the duration of the assay. 7,500 Caki-1 cells were plated 24 hours prior to dosing with Erastin, with a final DMSO concentration of 0.5%. 24 hours post-treatment, THP1-Dual cells (25,000 cells/well) were added to the Caki-1 cells. 24 hours later, 30 μl of supernatant was mixed with either 200 μl QuantiBlue (InvivoGen) or 50 μl QuantiLuc and absorbance or luminescence was recorded on a Molecular Devices plate reader.
Caki-1 renal cell carcinoma cells were treated with either control (DMSO) or various doses of RSL3, for 24 hours prior to co-culture with THP1-Dual cells for an additional 24 hours. RSL3 was purchased from Selleckchem and dissolved in DMSO. Subsequently, the THP1 supernatants were assessed for NFKB or IRF reporter activity.
Caki-1 cells were acquired from ATCC and THP1-Dual cells acquired from InvivoGen (San Diego, Calif.). Both cell types were cultured in 96-well plates for the duration of the assay. 7,500 Caki-1 cells were plated 24 hours prior to dosing with RSL3, with a final DMSO concentration of 0.5%. 24 hours post-treatment, THP1-Dual cells (25,000 cells/well) were added to the Caki-1 cells. 24 hours later, 30 μl of supernatant was mixed with either 200 μl QuantiBlue (InvivoGen, San Diego, Calif.) or 50 μl QuantiLuc and absorbance or luminescence was recorded on a Molecular Devices plate reader.
Caki-1 renal carcinoma cells were treated with either control (DMSO) or various doses (e.g. 0.002, 0.005, 0.014, 0.041, 0.123, 0.370, 1.111, 3.333 and 10 μM) of a GPX4 inhibitor (RSL3 or ML162) in the presence or absence of 1 μM Ferrostatin for 24 hours prior to co-culture with THP1-Dual cells for an additional 24 hours. Subsequently, the THP1 supernatant was assessed for NFKB reporter activity. Caki-1 cells were acquired from ATCC and THP1-Dual cells acquired from InvivoGen (San Diego, Calif.). Both cell types were cultured in 96-well plates for the duration of the assay.

Experiment [3] concerns Jurkat T cell leukemia cells. The experiment is described as follows: Viability of Jurkat T cell leukemia cells after treatment. Type of experiment: cell-based. The note with it: various doses, 24 hours treatment.
The test system of experiment [4] is NFKB. The experiment is described as follows: NFKB reporter activity in THP1-Dual monocytes co-cultured with treated Jurkat cells. The format is cell-based, human. The note with it: Jurkat cells treated 24 hours, then co-culture with THP1-Dual cells 24 hours; versus DMSO. On the procedure:
Jurkat T cell leukemia cells were treated with either control (DMSO) or various doses of RSL3, for 24 hours prior to co-culture with THP1-Dual cells for an additional 24 hours. RSL3 was purchased from Selleckchem (Houston, Tex.) and dissolved in DMSO. Subsequently, the THP1 supernatants were assessed for NFKB or IRF reporter activity.
Jurkat cells were acquired from ATCC and THP1-Dual cells acquired from InvivoGen (San Diego, Calif.). Both cell types were cultured in 96-well plates for the duration of the assay. 100,000 Jurkat cells were plated 24 hours prior to dosing with RSL3, with a final DMSO concentration of 0.5%. 24 hours post-treatment, THP1-Dual cells (25,000 cells/well) were added to the Jurkat cells. 24 hours later, 30 μl of supernatant was mixed with either 200 μl QuantiBlue (InvivoGen, San Diego, Calif.) or 50 μl QuantiLuc and absorbance or luminescence was recorded on a Molecular Devices plate reader.

Experiment [5] deals with A20 lymphoma cells. Nature of the experiment: Viability of A20 B-cell leukemia / lymphoma cells after treatment. The format is cell-based. As to conditions: various doses, 24 hours treatment.
For experiment [6], the system named is NFKB. The experiment is described as follows: NFKB reporter activity in THP1-Dual monocytes co-cultured with treated A20 cells. The format is cell-based, human. As to conditions: A20 cells treated 24 hours, then co-culture with THP1-Dual cells 24 hours; versus DMSO. As to the method:
A20 B-cell leukemia cells were treated with either control (DMSO) or various doses of RSL3, for 24 hours prior to co-culture with THP1-Dual cells for an additional 24 hours. RSL3 was purchased from Selleckchem (Houston, Tex.) and dissolved in DMSO. Subsequently, the THP1 supernatants were assessed for NFKB or IRF reporter activity.
A20 cells were acquired from ATCC and THP1-Dual cells acquired from InvivoGen (San Diego, Calif.). Both cell types were cultured in 96-well plates for the duration of the assay. 50,000 A20 cells were plated 24 hours prior to dosing with RSL3, with a final DMSO concentration of 0.5%. 24 hours post-treatment, THP1-Dual cells (25,000 cells/well) were added to the A20 cells. 24 hours later, 30 μl of supernatant was mixed with either 200 μl QuantiBlue (InvivoGen, San Diego, Calif.) or 50 μl QuantiLuc and absorbance or luminescence was recorded on a Molecular Devices plate reader.
A20 lymphoma cells were treated with various doses (e.g. 0.002, 0.005, 0.014, 0.041, 0.123, 0.370, 1.111, 3.333 and 10 μM) of a GPX4 inhibitor (RSL3, ML162 or ML210) in the presence or absence of 1 μM Ferrostatin-1 for 24 hours. ML162 was purchased from Cayman Chemical Company Inc and resuspended in DMSO. ML210 was purchased from Sigma-Aldrich and resuspended in DMSO. A20 lymphoma cells were also treated with DMSO as a negative control. After treatment with DMSO or a GPX4 inhibitor for 24 hours, the A20 lymphoma cells were co-cultured with THP1-Dual cells for an additional 24 hours. Subsequently, the THP1 supernatant was assessed for NFKB reporter activity. A20 cells were acquired from ATCC and THP1-Dual cells were acquired from InvivoGen (San Diego, Calif.). Both cell types were cultured in 96-well plates for the duration of the assay.

Experiment [7] has as its system IRF. The experiment is described as follows: IRF reporter activity in THP1-Dual monocytes co-cultured with treated A20 cells. The format is cell-based, human. The note with it: A20 cells treated 24 hours, then co-culture with THP1-Dual cells 24 hours; versus DMSO. On the procedure: A20 B-cell leukemia cells were treated with either control (DMSO) or various doses of RSL3, for 24 hours prior to co-culture with THP1-Dual cells for an additional 24 hours. RSL3 was purchased from Selleckchem (Houston, Tex.) and dissolved in DMSO. Subsequently, the THP1 supernatants were assessed for NFKB or IRF reporter activity. A20 cells were acquired from ATCC and THP1-Dual cells acquired from InvivoGen (San Diego, Calif.). Both cell types were cultured in 96-well plates for the duration of the assay. 50,000 A20 cells were plated 24 hours prior to dosing with RSL3, with a final DMSO concentration of 0.5%. 24 hours post-treatment, THP1-Dual cells (25,000 cells/well) were added to the A20 cells. 24 hours later, 30 μl of supernatant was mixed with either 200 μl QuantiBlue (InvivoGen, San Diego, Calif.) or 50 μl QuantiLuc and absorbance or luminescence was recorded on a Molecular Devices plate reader.

In experiment [8] the test system is RAS-expressing cells. As to conditions: knockdown studies; U.S. Pat. No. 8,546,421; cited from earlier work.

Entries after “also recorded” stand apart in the source; their conditions may differ.

`COC(=O)c1ccc([C@H]2c3[nH]c4ccccc4c3C[C@H](C(=O)OC)N2C(=O)CCl)cc1` [RSL3]: the “viability of Caki-1 cells” value in experiment [1] was “negatively affected the viability; also recorded: decreased viability of the cells in a dose dependent manner”. For the same compound, in experiment [2], the “NFKB signaling/activity in THP1 monocytes” value is on record as “elicited NFKB signaling; also recorded: increased NFKB activity in THP1 cells in a dose dependent manner”. In addition, in experiment [3], the “viability of Jurkat T cell leukemia cells” value is given as “negatively affected the viability”. In experiment [4], the “NFKB signaling in THP1 monocytes” value is on record as “elicited NFKB signaling”. Also, in experiment [5], the “viability of A20 cells” value is recorded as “negatively affected the viability; also recorded: decreased viability of the cells in a dose dependent manner”. In experiment [6], the “NFKB signaling/activity in THP1 monocytes” value is recorded as “elicited; also recorded: increased NFKB activity in THP1 cells in a dose dependent manner”. In addition, the “IRF signaling in THP1 monocytes” value in experiment [7] is “elicited”. Further, in experiment [8], the “death of RAS-expressing cells” value is “selectively mediated the death of RAS-expressing cells” and the “lipid ROS accumulation” value is given as “increasing lipid ROS accumulation”.

(Values after US20210251994A1, “INCREASING IMMUNE ACTIVITY THROUGH MODULATION OF POSTCELLULAR SIGNALING FACTORS” (FLAGSHIP PIONEERING INNOVATIONS V, INC., priority 2018, published 2021).)
